Test results reported in patent publication US9115159B2, “Phosphate compounds, a process for their preparation and pharmaceutical compositions containing them” (LES LABORATOIRES SERVIER, priority 2013, dated 2015).
Values joined by “and” are separate entries in the source; they are usually repeats but may differ in a detail not shown here. Identical values can stand only once.

Key:
[1] = tested on: cleaved (activated) form of caspase 3; test: Quantification of the cleaved form of caspase 3 in vivo (MSD ELISA, RS4;11 xenograft tumour lysates); set-up: species or system mice (SCID strain); conditions: sampling time 2 hours, treated versus control mice
Method: The ability of the compounds of formula (I′) to activate caspase 3 is evaluated in a xenograft model of RS4;11 leukaemia cells.
1×10^7 RS4;11 cells are grafted sub-cutaneously into immunosuppressed mice (SCID strain). 25 to 30 days after the graft, the animals are treated orally with the various compounds. After treatment, the tumour masses are recovered and lysed, and the cleaved (activated) form of caspase 3 is quantified in the tumour lysates.
The quantification is carried out using the “Meso Scale Discovery (MSD) ELISA platform” test, which specifically assays the cleaved form of caspase 3. It is expressed in the form of an activation factor corresponding to the ratio between the quantity of cleaved caspase 3 in the treated mice divided by the quantity of cleaved caspase 3 in the control mice.
The ability of the compounds of formula (I) to activate caspase 3 is evaluated in a xenograft model of RS4;11 leukaemia cells in accordance with the protocol given in Example A2.

[2] = tested on: human Caco-2 cells; test: In vitro test on human Caco-2 cells, cellular transport A to B; type: in vitro ADME; conditions: prodrug incubated, 120 minutes; for Yield (experiment yield), the drug after incubation of the prodrug / Fabs (predicted absorbed fraction in humans), the drug after incubation of the prodrug: corresponding drug measured; for Fabs (predicted absorbed fraction in humans), the drug after incubation of the prodrug: 1 or 3 μM; for Yield (experiment yield), compound measured: the prodrug itself: total amount found at the end versus incubated
Method: The cellular transport from A to B (Apical to Basolateral) of the phosphate compounds of formula (I) and the compounds of formula (I′) (corresponding drugs) is studied in human Caco-2 cells. Each compound is deposited apically at 1 or 3 μM (in duplicate) and then incubated for 120 minutes.
Several samples are taken during the experiment; • apically: immediately after deposition (t=0) and at 120 minutes • basolaterally: at the end of the experiment (120 minutes)
The concentrations of the phosphate compound (prodrug) and/or of its hydroxylated homologue (drug) are determined by liquid chromatography coupled with mass spectrometric detection (LC-MS/MS). The limit of quantification for both entities is 2 ng/mL.
The apparent permeability (Papp) and the predicted absorbed fraction (Fabs) in humans are calculated for the prodrug, for the drug after incubation of the prodrug and for the drug after incubation of the drug (Hubatsch et al, Nat Protoc. 2007; 2(9), 2111-2119).
The experiment yield, which corresponds to the ratio (in percent) of the total amount of compound found at the end of the experiment versus that incubated, is also calculated.

[3] = Pharmacokinetic profile / in vivo conversion after oral administration to SCID mice (plasma, LC-MS/MS); set-up: species or system female SCID mice
Method: The pharmacokinetic profile of the phosphate compounds of formula (I) is evaluated in a lipid formulation and in aqueous solution in female SCID mice. This is compared to the pharmacokinetic profile of compounds of formula (I′) in a lipid formulation. More specifically, 4-[{[3-(6-{[(3S)-3-(morpholin-4-ylmethyl)-3,4-dihydroisoquinolin-2(1H)-yl]-carbonyl}-1,3-benzodioxol-5-yl)-5,6,7,8-tetrahydroindolizin-1-yl]carbonyl}(phenyl)-amino]phenyl disodium phosphate (also referred to as the compound of Example 1) was tested and compared to N-(4-hydroxyphenyl)-3-{6-[((3S)-3-(4-morpholinylmethyl)-3,4-dihydro-2(1H)-isoquinolinyl)carbonyl]-1,3-benzodioxol-5-yl}-N-phenyl-5,6,7,8-tetrahydro-1-indolizine carboxamide (also referred to as the drug from Example 1).
The compound of Example 1 is prepared in a mixture of anhydrous ethanol/polyethylene glycol 300/water (10/40/50, v/v/v) intended for administration by the p.o. route. The study is carried out in 2 groups of SCID mice to which the compound of Example 1 is administered under the following conditions: • Group 1: 3 mg/kg p.o. (gavage, 10 mL/kg), • Group 2: 25 mg/kg p.o. (gavage, 10 mL/kg).
Blood samples are taken at the following points in time (3 samples per animal and 3 animals for each point in time): 0.25 hr, 0.5 hr, 1 hr, 2 hrs, 6 hrs and 24 hrs after oral administration.
The compound of Example 1 is also administered by the oral route in an aqueous medium to SCID mice, under the following conditions: • Group 1: 30 mg/kg p.o. dissolved in 1 mM sodium carbonate solution (gavage, 10 mL/kg), • Group 2: 100 mg/kg p.o. in water (gavage, 10 mL/kg).
Blood samples are taken at the following points in time (3 animals for each point in time and 1 sample per animal): 0.25 hr, 0.5 hr, 1 hr, 2 hrs, 4 hrs, 6 hrs and 24 hrs after oral administration.
For all formulations of the compound of Example 1, the blood thereby collected is centrifuged and the plasma is transferred to tubes containing 1M hydrochloric acid. The plasma concentrations of the phosphate compound (prodrug) and its hydroxylated homologue (drug) are determined simultaneously using a method of liquid chromatography coupled with mass spectrometric detection (TFC-LC-MS/MS). The limit of detection for both entities is 0.5 ng/mL.
The drug from Example 1 is prepared in a mixture of anhydrous ethanol/polyethylene glycol 300/water (10/40/50, v/v/v) intended for administration by the p.o. route. The study is carried out in several groups of SCID mice to which the drug from Example 1 is administered under the following conditions: • Group 1: 3 mg/kg p.o. (gavage, 10 mL/kg), • Group 2: 30 mg/kg p.o. (gavage, 10 mL/kg), • Group 3: 25 mg/kg p.o. (gavage, 10 mL/kg), • Group 4: 100 mg/kg p.o. (gavage, 10 mL/kg).
Blood samples are taken at the following points in time (3 animals for each point in time and 3 samples per animal for Groups 1-2 and 1 sample per animal for Groups 3 and 4): • p.o.: before administration and then 0.25 hr, 0.5 hr, 0.75 hr, 1 hr, 2 hrs, 4 hrs, 6 hrs, 8 hrs, 16 hrs and 24 hrs after oral administration at 3 and 30 mg/kg, • p.o.: 0.5 hr, 2 hrs, 6 hrs, 16 hrs and 24 hrs after oral administration at 25 mg/kg and 0.5 hr, 1 hr, 2 hrs, 6 hrs, 16 hrs, 30 hrs and 48 hrs after oral administration at 100 mg/kg.
The plasma from the blood samples collected after administration of the lipid formulations of the drug from the compound of Example 1 are analysed by liquid chromatography coupled with mass spectrometric detection. The limit of quantification of the drug from the compound of Example 1 is less than or equal to 0.5 ng/mL.
Non-compartmental pharmacokinetic analysis is carried out on the mean values of the plasma concentrations of the compounds tested. […]

[4] = Solubility in water; type: physicochemical
Method: The solubility of compounds of formula (I) in water was measured and compared with that of compounds of formula (I′).
More specifically, 4-[{[3-(6-{[(3S)-3-(morpholin-4-ylmethyl)-3,4-dihydroisoquinolin-2(1H)-yl]carbonyl}-1,3-benzodioxol-5-yl)-5,6,7,8-tetrahydroindolizin-1-yl]carbonyl}-(phenyl)amino]phenyl disodium phosphate (also referred to as the compound of Example 1) was tested and compared to N-(4-hydroxyphenyl)-3-{6-[((3S)-3-(4-morpholinylmethyl)-3,4-dihydro-2(1H)-isoquinolinyl)carbonyl]-1,3-benzodioxol-5-yl}-N-phenyl-5,6,7,8-tetrahydro-1-indolizine carboxamide (also referred to as the drug from Example 1).
(§1) The solubilities of the compounds were also measured in a medium buffered to physiological pH (cf. Table 3).

[5] = Solubility in aqueous medium buffered to physiological pH (phosphate 0.33M, pH 7.4); type: physicochemical; conditions: phosphate 0.33M, pH = 7.4
Method: as §1

[6] = Example 1 administered 3 mg/kg p.o., lipid formulation
[7] = Example 1 administered 25 mg/kg p.o., lipid formulation
[8] = Example 1 administered 30 mg/kg p.o., aqueous formulation (1 mM sodium carbonate solution)
[9] = Example 1 administered 100 mg/kg p.o., aqueous formulation (in water)

For `Cc1c(C(=O)N(c2ccc(OP(=O)([O-])[O-])cc2)c2cc(C#N)n(C)c2)cc(-c2cc(Cl)ccc2C(=O)N2Cc3ccccc3C[C@H]2CN2CCOCC2)n1C.[Na+].[Na+]` [Example 21, 4-[{[5-(5-Chloro-2-{[(3S)-3-(morpholin-4-ylmethyl)-3,4-dihydroisoquinolin-2(1H)-yl]carbonyl}phenyl)-1,2-dimethyl-1H-pyrrol-3-yl]carbonyl}(5-cyano-1-methyl-1H-pyrrol-3-yl)amino]phenyl disodium phosphate], the “Activation factor +/− S.E.M.” value ([1]; Table 2, 25 mg/kg oral) was 55.2 +/− 6.2, the “Yield (experiment yield), the drug after incubation of the prodrug” value [2] was “Yield (%) = 100” and the “Fabs (predicted absorbed fraction in humans), the drug after incubation of the prodrug” value ([2]; A to B) was “Fabs (%) = 19”. The “Yield (experiment yield), compound measured: the prodrug itself” value [2] was “Yield (%) = 0.83”.

For `Cc1c(C(=O)N(c2ccc(OP(=O)([O-])[O-])cc2)c2cnn(C)c2)cc(-c2cc(F)ccc2C(=O)N2Cc3ccccc3C[C@H]2CN2CCOCC2)n1C.[Na+].[Na+]` [Example 15, 4-[{[5-(5-Fluoro-2-{[(3S)-3-(morpholin-4-ylmethyl)-3,4-dihydroisoquinolin-2(1H)-yl]carbonyl}phenyl)-1,2-dimethyl-1H-pyrrol-3-yl]carbonyl}(1-methyl-1H-pyrazol-4-yl)amino]phenyl disodium phosphate], the “Activation factor +/− S.E.M.” value ([1]; Table 2, 25 mg/kg oral) was 12.1 +/− 1.1.

With `O=C(c1cc(-c2cc3c(cc2C(=O)N2Cc4ccccc4C[C@H]2CN2CCOCC2)OCO3)n2c1CCCC2)N(c1ccccc1)c1ccc(OP(=O)([O-])[O-])cc1.[Na+].[Na+]` [Example 1, 4-[{[3-(6-{[(3S)-3-(Morpholin-4-ylmethyl)-3,4-dihydroisoquinolin-2(1H)-yl]carbonyl}-1,3-benzodioxol-5-yl)-5,6,7,8-tetrahydroindolizin-1-yl]carbonyl}(phenyl)amino]phenyl disodium phosphate] the “Activation factor +/− S.E.M.” value ([1]; Table 2, 50 mg/kg oral) was 21.2 +/− 1.3, the “Yield (experiment yield), the drug after incubation of the prodrug” value [2] was “Yield (%) = 42” and the “Fabs (predicted absorbed fraction in humans), the drug after incubation of the prodrug” value ([2]; A to B) was “Fabs (%) = 71”. The “Papp, compound measured: the prodrug itself” value ([2]; A to B, deposited apically at 1 or 3 μM) was “Papp (10^−6 cm/s) = 0.01”, the “Yield (experiment yield), compound measured: the prodrug itself” value [2] was “Yield (%) = 0” and the “AUCt, compound measured: Example 1” value [3, 6] was “AUCt (ng · h/mL) = 5”. For the same compound, the “Tmax, compound measured: Example 1” value [3, 6] was “Tmax (h) = 0.25”, the “Cmax, compound measured: Example 1” value ([3]; Example 1 administered 3 mg/kg p.o., lipid formulation (ethanol/PEG 300/water 10/40/50)) was “Cmax (ng/mL) = 16” and the “AUCt, compound measured: Example 1” value [3, 7] was “AUCt (ng · h/mL) = 92”. For the same compound, the “Cmax, compound measured: Example 1” value [3, 7] was “Cmax (ng/mL) = 244”, the “Tmax, compound measured: Example 1” value [3, 7] was “Tmax (h) = 0.25” and the “AUCt, compound measured: Example 1” value [3, 8] was “AUCt (ng · h/mL) = 879”. The “Cmax, compound measured: Example 1” value [3, 8] was “Cmax (ng/mL) = 391”, the “Tmax, compound measured: Example 1” value [3, 8] was “Tmax (h) = 1.0” and the “AUCt, compound measured: Example 1” value [3, 9] was “AUCt (ng · h/mL) = 797”. The “Cmax, compound measured: Example 1” value [3, 9] was “Cmax (ng/mL) = 359”, the “Tmax, compound measured: Example 1” value [3, 9] was “Tmax (h) = 2.0” and the solubility in water [4] was “greater than or equal to 10 mg/mL and ≥ 12.6 mM”. For the same compound, the “Solubility at 10 μM” value ([5]; 10 μM) was “Soluble”, the “Solubility at 20 μM” value ([5]; 20 μM) was “Soluble” and the “Solubility at 50 μM” value ([5]; 50 μM) was “Soluble”. For the same compound, the “Solubility at 100 μM” value ([5]; 100 μM) was “Soluble”.
